# Assay results taken from a melting point compilation (Tetko et al.; mined from patent text by program, amines drawn as free bases though some values may be those of a salt).
row,melting point [°C],Structure (SMILES)
1,107 to 109,CCC(CC)Nc1ncnc2c1ncn2C
2,70 to 72,CCCCCCCCCCCNC(=S)NCCCCCCCCCCC
3,140 to 141,COc1ccc(Cc2cnc(NCCc3ccccc3Cl)nc2N2CCc3cc(OC)c(OC)cc3C2)cc1OC
4,189 to 190,CCCN(CCSc1nc(-c2ccccc2)c(-c2ccccc2)[nH]1)C(=O)Nc1ccc(F)cc1F
5,130,NC(=O)CCCCn1ccc(NC(N)=NCC(F)(F)F)n1
6,113 to 115,COCCc1ccc(OCC(O)CN2CCC(N3CCCNC3=O)CC2)cc1 (stereo not given)
7,45 to 46,CCOC(=O)c1c(C)nc(Cl)c([N+](=O)[O-])c1Cl
8,98 to 100,COC(=O)C(C)(C)OCC#Cc1cc(C(F)(F)F)ccc1NS(=O)(=O)c1ccc2c(c1)OCCN2C
9,99 to 101,C=CCC1(CCNC(=O)C2CCC2)c2cc(OC)ccc2CCC12OCCO2 (stereo not given)
10,186 to 187,CC(=O)OC[C@H](Cc1ccccc1)NC(=O)[C@H](Cc1ccccc1)NC(=O)c1ccccc1
11,112 to 114,COC(=O)c1cc(Cl)ccc1NS(=O)(=O)c1ccc(C)cc1
12,212,CC(=O)Nc1nc(CCc2ccc(N)cc2)c(C(=O)O)s1
13,49 to 52,CCCCCCCCCCCCOC(CCCCCCCCCCCC)COCC(O)COc1ccc(N2CCOCC2)cc1 (stereo not given)
14,143 to 145,CCCOc1ccc(S(=O)(=O)N2CCN(CC)CC2)cc1C(=O)O
15,193 to 194,N#CCCCOc1ccc(C(=O)O)cc1
16,117 to 122,CCc1cc(Cl)ccc1NC(C)=O
17,197 to 199,CCc1nnc2ccc(-c3ccc(Cl)cc3)nn12
18,163 to 165,Cn1ncc(NCCCN2CCC(c3noc4cc(F)ccc34)CC2)cc1=O
19,103 to 105,O=C(O)CCCCCCCCc1ccc(O)cc1

row,melting point [°C],Structure (SMILES)
1,92,Cc1ccc(-c2ccc(S(=O)(=O)N3c4ccccc4CC3C(=O)NCCOc3ccc(CC(=O)O)cc3)cc2C(F)(F)F)cc1 (stereo not given)
2,188,CCCCCS(=O)(=O)NC(=O)/C=C/c1ccc(OCCOC)cc1Oc1ncc(NC(C)=O)cc1C
3,73 to 74,CCCS(=O)(=O)N=C(NC)NCCSCc1[nH]cnc1C
4,128 to 129,COc1cc(OC)cc(N2CCN(C(=S)Nc3cc(C)c(C)cc3OC)CC2)c1
5,58,CCCCCCC(O)CCCCCCCCCCC(=O)OC (stereo not given)
6,144 to 145,CCOC(=O)C1=C(C)NC(CN2C(=O)c3ccccc3C2=O)=C(C(=O)OCC)C1c1ccc(F)cc1 (stereo not given)
7,95 to 97,CCOC(=O)C(=O)Nc1ncccc1C#N
8,160 to 161,CN(C)C=C(C#N)C(=O)NCc1ccccc1
9,110,CCCCc1oc2ccc(NS(=O)(=O)c3ccc(C)cc3)cc2c1C(=O)c1ccc(OCCCN(CCCC)CCCC)cc1
10,144 to 145,N#CCCNC(=O)C1=CC(CF)(CF)Oc2ccc(C(F)(F)C(F)(F)F)cc21
11,67 to 70,CNC(=O)CCC(C)=S
12,116 to 120,CC(C)C[C@H](NC(=O)c1ccc(Cl)cc1)C(=O)N[C@@H](C(C)C)[C@@H](O)c1c(-c2ccccc2)c1=O
13,255 to 256,Cc1ccc(O)cc1NC(=O)CC12CC3CC(CC(C3)C1)C2
14,135 to 136,CC(C)c1cccc(C(C)C)c1NC(=O)CNC(c1ccccc1)c1ccccn1 (stereo not given)
15,138 to 140,CCOC(=O)c1cn(C)c2cc(C(C)(C)C)ccc2c1=O
16,162 to 165,CC(=O)Nc1nc2c(ncn2COCC(COC(C)=O)OC(C)=O)c(=O)[nH]1 (stereo not given)
17,88,Cc1cc(CNC(=O)c2cc(-c3ccc(C(C)(C)C)cc3)n(Cc3ccccc3)n2)ccc1OC(C)(C)C(=O)O
18,218 to 219,O=C(O)CCCCN1CCN2c3ccccc3Cc3ccccc3C2C1 (stereo not given)

# More lines, now with the values behind:
row,Structure (SMILES),melting point [°C]
1,Cc1oc(-c2ccccc2)nc1COc1ccc(Cn2cc(CCC(=O)O)c(-c3ccccc3)c2)cc1,124 to 125
2,CC1=C(CN(C)C(=O)N2CCN(C(N)=O)CC2)C(C)(C)CCC1,140
3,CC(C)NC(=NC(=Nc1ccccc1)N1CCOCC1)C(C)C,132 to 135
4,CCOC(=O)c1cn(-c2nnc(C)s2)c2nc(N3CC[C@H](N)C3)c(F)cc2c1=O,265 to 268
5,CC(O)c1cc(S(N)(=O)=O)sc1Sc1ccc(O)cc1 (stereo not given),133 to 137
6,Oc1cccc2c1CCCC2CN1CCCCC1 (stereo not given),129 to 131
7,NC(=O)N1CCC(c2nn(-c3ccc(C(F)(F)F)cc3)c3cc(F)ccc23)CC1,148 to 150
8,CS(=O)(=O)c1ccc2nc(NC(=N)N)nc(-c3ccccc3)c2c1,180 to 185
9,CC(n1cnc2cc(-c3ccc(C4=NCCO4)cc3)sc2c1=O)C(O)(Cn1cncn1)c1ccc(F)cc1F (stereo not given),235 to 236
10,COc1ccc2c(n1)c(C=O)c1n2Cc2ccccc2-1,229 to 230
11,CC1(C)C(=O)Nc2cc3[nH]c(-c4ccc(-n5ccnc5)cc4)nc3cc21,300
12,c1ccc(Nc2nc3c(s2)CCc2[nH]ncc2-3)nc1,297 to 299
13,CC(C)Sc1cccc(-c2nc(=O)c3ccccc3s2)n1,185 to 186
14,C#CCOC(=O)Cc1c(C)nn(-c2cnccc2C)c1-c1ccccc1,106
15,CC(C)Cn1c(C(C)O)nc2cnc3ccccc3c21 (stereo not given),152 to 166
16,O=Cc1cc2c(ccc3c4ccccc4ccc23)o1,169
17,COCC(=O)NNC1=Nc2sc(Cl)cc2C(c2ccccc2[N+](=O)[O-])=NC1,198 to 200
18,Cc1c(F)c(N2CCC(n3cc(-c4ccccc4)nn3)C2)c(F)c2c1c(=O)c(C(=O)O)cn2C1CC1 (stereo not given),221
19,CC1Nc2ccc(Cl)c3cccc(c23)S1(=O)=O (stereo not given),150
20,COc1c(C)c(C)cc(C)c1C(O)(c1ccc(C(C)C)cc1)C1CCN(Cc2ccccc2)CC1 (stereo not given),154 to 156
21,Cn1cc(CO)c(=O)c2cccc(Cl)c21,182 to 184

row,Structure (SMILES),melting point [°C]
1,COC(=O)C(Oc1cc(OCc2ccsc2)ccc1C#N)c1ccccc1C(F)(F)F (racemic),104 to 108
2,CC(C)(C)C(=O)C(Oc1ccccc1)C(=O)Nc1ccc(Cl)cc1Cl (stereo not given),112 to 114
3,O=C(O)Cc1ccc2c(c1)C(=O)C(=Cc1ccccc1)C2,202 to 204
4,COc1cc(O)c2c(=O)c3ccccc3n(C)c2c1,162 to 164
5,O=C1CC(c2ccccc2)=Nc2ccccc2N1Cc1ccccc1,122 to 123
6,Nc1ncnc2c1nc(O)n2CCc1ccccc1,256 to 258
7,O=C1Cc2ccccc2Oc2ccccc2C1,86
8,CC(=Cc1c(Cl)cc(N(C)C)cc1Cl)[N+](=O)[O-],105 to 110
9,Nc1cccc2c1C(=O)C1=C(CCCC1)C2=O,189 to 191
10,CN1C(=O)CC(c2ccc(N)cc2)C1C(O)c1ccc(-c2ccccc2)s1 (stereo not given),221 to 222
11,CC1(C)Oc2ccc(Cl)cc2C(NS(C)(=O)=O)C1O (stereo not given),198 to 202
12,C=Cc1nc(C#N)c(C#N)[nH]1,168 to 170
13,O=S(=O)(F)c1ccccc1S(=O)(=O)F,130 to 131
14,Cc1c[nH]c(Nc2ccc(C3=NNC(=O)CC3C)cc2)nc1=O (stereo not given),260 to 270
15,COc1ccc(C2(C#Cc3cc(C(=O)O)cs3)CCC(=O)CC2)cc1OC1CCCC1,75 to 76
16,Fc1ccc(SC(F)(F)C(F)(F)C(F)(F)C(F)(F)C(F)(F)C(F)(F)C(F)(F)C(F)(F)Sc2ccc(F)cc2)cc1,60 to 61
17,N#Cc1cccc(C(=O)c2ccc(Cl)cc2)c1,142
18,Cc1cc2c(cc1C)-n1c(C)nnc1C=C(c1ccc(-n3c(C)nc4cnccc43)cc1)N2,294 to 296
19,Cc1oc(-c2ccc3ccccc3c2)nc1C=Cc1ccc(/C=C/C=O)cc1,213 to 214
20,COc1ccc(C)cc1-c1cc2ccccc2[nH]1,119
21,OC1(OCc2ccccc2)C(Cl)=C(Cl)C=CC1OCc1ccccc1 (stereo not given),74 to 75

row,Structure (SMILES),melting point [°C]
1,CCOc1nc2cccc(C(=O)O)c2n1Cc1ccc(-c2ccccc2C(=O)O)cc1,213 to 215
2,O=C1CC(c2ccccc2)Oc2cc(OCCn3ccnc3)ccc21 (stereo not given),139 to 140
3,Cc1cc(C(=O)O)ccc1Cc1cc2cc(C(F)(F)F)ccc2n1S(=O)(=O)c1cccc(C(C)(C)C)c1,135
4,"Cc1ccc(S(=O)(=O)NC(=O)CC(=O)N2CCCC2C(=O)N2CCN(C3(N4CCCC4)N=CC=C(N4CCCC4)N3)CC2)cc1 (single isomer, unassigned; (-))",170
5,CN(C)c1ccc(/C=C/c2ccc(F)cc2)cc1,197 to 198
6,Cn1cc2c([C@H]3C[C@H]3CN)cccc2n1 (relative stereo),155 to 156
7,COc1cccc(C2Nn3cc(-c4cc(-c5ccc(Cl)cc5Cl)no4)nc3S2)c1 (stereo not given),195 to 198
8,CCOC(=O)c1cn(C2CC2)c2c(C#N)c(N3C[C@@H]4CCCN[C@@H]4C3)c(F)cc2c1=O,209 to 210
9,Nc1ccc2ncnc(Nc3cccc(Cl)c3)c2c1,> 150
10,Clc1nccnc1NCCOc1ccccc1,51 to 53
11,N#CC1C(=O)NC(=O)C12C(=O)N(Cc1ccc(Br)cc1F)c1ccccc12 (stereo not given),208 to 210
12,COC1CNCc2cc3ccccc3n21 (stereo not given),120 to 122
13,CCc1noc(-c2cn(-c3ncc(Cl)cc3Cl)cn2)n1,132 to 133
14,CN(C)C(=O)NNCC1CC2c3cccc4[nH]cc(c34)CC2N(C)C1 (stereo not given),205 to 206
15,O=c1nc2ccccc2c2cc(CO)[nH]n12,225 to 230
16,BrCCCc1ccc(C=Cc2cc3ccccc3s2)s1,109 to 111
17,COc1ccc(-c2nnc3c4ccccc4c(CCl)nn23)cc1,203 to 206
18,Cc1cccc(-n2nc(C)cc2-c2ccnc(S(C)(=O)=O)c2)c1,140 to 142
19,Nc1n[nH]cc1C(=O)c1ccccc1,177 to 179
20,CC(C)(C)C(NC(=O)c1ccc(Cl)cc1)NC(=NC#N)Nc1c(F)cccc1F (stereo not given),211 to 213
21,Nc1nc2cc(Cl)c(Cl)cc2[nH]1,260 to 262
